Earlier results on two compounds are cited in patent US6399640B1, “Arylthiazolidinedione and aryloxazolidinedione derivatives” (Merck & Co., Inc., priority 1999, dated 2002).

One series relates to PPARγ. Particulars: subsequent studies; Willson et al, J. Med. Chem. 1996.
In a further series the test system is ob/ob mice. To be noted: Cantello et al, J. Med. Chem. 1994.
In a further series the test system is diabetic mouse model. To be noted: Sohda et al, Chem. Pharm. Bull. 1982.

Turning to `CN(CCOc1ccc(C2SC(=O)NC2=O)cc1)c1nc2ccccc2o1` (stereo not drawn) [(1)], in the series with PPARγ, the “amounts required for PPARγ activation” value is “relatively high amounts”. For the same compound, the antihyperglycemic activity result in the series on ob/ob mice is listed as “no antihyperglycemic activity”.

For the compound `O=C1NC(=O)C(c2ccc(OCCc3ccccc3)cc2)S1` (stereo not drawn) [(2), 5-[4-(phenylethoxy)phenyl]-2,4-thiazolidinedione], the antihyperglycemic effect entry with diabetic mouse model is “no antihyperglycemic effect”.
